119 compounds from a melting point compilation (Tetko et al.) can be followed below.

As usually defined, the melting point is the temperature of the solid-liquid transition. For the compound `O=c1[nH]c(N2CCOCC2)cc2ccccc12`, the melting point was in the range of 212 to 214 °C. Next, `COc1ccc(CN2C(=O)c3ccccc3C2=O)cc1C(=O)O`: 143 to 145 °C; `CC1CCN(S(=O)(=O)c2ccc(C(=O)O)s2)CC1`: 207 to 209 °C; `CC1C(=O)NC(=O)C1C` (centres undefined): 56 to 58 °C. To `CC(C)c1ccc2c(c1)[C@@H](O)CCC2` belongs 89 to 91 °C; to `O=C(O)C1=Nc2cccc3cccc(c23)N1`, 210 to 212 °C; to `COC(=O)c1cc(C)c(C)c(S(=O)(=O)Cl)c1`, 61 to 63 °C. To `COc1cc(C)ccc1C(=O)CBr` belongs 77 to 79 °C; to `O=C(CCl)Nc1ccc(S(=O)(=O)N2CCCC2)cc1`, 185 to 187 °C.

Turning to `Nc1ncc(-c2ccccc2F)s1`, the melting point was in the range of 149 to 151 °C.

As for `O=C(Cc1ccccn1)c1cccnc1`, the melting point is 66 to 68 °C. Turning to `CNc1nc2ccccc2o1`, the melting point was in the range of 99 to 101 °C. For the compound `CCOC(=O)c1[nH]nc2ccc(Br)cc12`, the melting point lay in the range of 231 to 233 °C. Next, `CS(=O)(=O)c1cccc(C(N)c2ccccc2)c1` (centres undefined): 48 to 50 °C; `Cc1ccc(CNC(=O)CCl)cc1`: 117 to 119 °C; `NC(=O)c1ccsc1NC(=O)CCCl`: 171 to 173 °C. For `N#Cc1cnn2c(O)cc(CCl)nc12`, the melting point lay in the range of 369 to 371 °C. To `O=S(=O)(c1ccc(Cl)nc1)N1CCC(Cc2ccccc2)CC1` belongs 153 to 157 °C. Next, `COc1ccc(C(N)C(=O)O)cc1` (centres undefined): 232 to 234 °C; `O=S(=O)(Nc1cc(F)cc(F)c1)c1ccc(Cl)nc1`: 199 to 201 °C.

Regarding `CC1(C)CCc2c(sc(N)c2C(=O)N2CCOCC2)C1`, the melting point fell in the range of 138 to 140 °C. For `OC(c1cnn(-c2ccccc2)c1)C(F)(F)F` (centres undefined), the melting point fell in the range of 77 to 79 °C. Next, `O=C(O)[C@@H]1CC(O)CN1C(=O)OCC1c2ccccc2-c2ccccc21` (some centres undefined): 189 to 191 °C; `CC(C)Cc1nc(C(=O)O)cs1`: 104 to 106 °C; `NC(=O)c1cnn(-c2ncccn2)c1N`: 256 to 258 °C. As for `Cc1cc(S(=O)(=O)Nc2ccccc2C(=O)O)ccc1F`, the melting point was in the range of 65 to 68 °C. As for `Cc1nnc(Sc2ccc(N)c(C)c2)s1`, the melting point lay within 142 to 144 °C.

In turn, `Cc1cc(C)cc(C(=O)N2CCNCC2)c1` returned a melting point of 125 to 127 °C. To `CNC(=Nc1cc(C)nn1-c1ccccc1)c1ccc(F)cc1` belongs 227 to 228 °C. To `CCC(C)n1nc(N)cc1C` (centres undefined) belongs 54 to 56 °C; to `Cc1ccc2c(CCl)cc(=O)oc2c1C`, 174 to 176 °C; to `Cc1ccc(-n2c(C)c(Br)c3c2CCCC3=O)cc1`, 139 to 141 °C. To `Cc1cc(C)c(C(=O)O)[nH]1` belongs 109 to 111 °C; to `CC1(c2ccc(F)c(F)c2)NC(=O)NC1=O` (centres undefined), 175 to 177 °C; to `NCC(O)c1ccccc1C(F)(F)F` (centres undefined), 106 to 108 °C.

Compound `Cc1nnc(NCC2CC2)c2ccccc12` showed a melting point of 89 to 91 °C. Regarding `O=C(O)COc1cc(C(F)(F)F)cc(C(F)(F)F)c1`, the melting point lay within 102 to 104 °C.

Compound `CN(CC(N)=S)C(=O)c1ccccc1` gave a melting point of 149 to 151 °C.

As for `O=C(O)c1cccc(Br)c1I`, the melting point was 139 to 141 °C. To `COC(=O)c1cc(NS(=O)(=O)c2cccs2)cc(NS(=O)(=O)c2cccs2)c1` belongs 251 to 253 °C. Next, `Cc1cc(NC(=O)OC(C)(C)C)ccc1N`: 103 to 105 °C. To `N#Cc1cccc(COc2ccc(N)cc2F)c1` belongs 69 to 71 °C. `O=S(=O)(Cl)C12CC3CC(CC(C3)C1)C2`: the melting point was in the range of 121 to 123 °C.

For `CC(C)CCNC(=O)NC(=O)CCl`, the melting point is 93 to 95 °C. To `Nc1nc(C(=O)O)n[nH]1` belongs 178 to 182 °C. In turn, `CS(=O)(=O)NCCc1ccc(C(=O)O)cc1` displayed a melting point of 171 to 173 °C. `Cc1nc(CC(C)C)sc1C(=O)O`: the melting point was in the range of 169 to 171 °C. To `Cc1cc(C)n2nc(C)c(C(=O)O)c2n1` belongs 226 to 228 °C; to `O=[N+]([O-])c1ccc(F)cc1NC1CC1`, 69 to 71 °C; to `CCOc1ccccc1C(N)(C(=O)O)C(F)(F)F` (centres undefined), 119 to 121 °C. Next, `ON=Cc1ccc(Oc2ncccn2)cc1`: 177 to 179 °C; `COC(=O)c1cc(S(=O)(=O)Cl)ccc1Br`: 89 to 91 °C; `CNS(=O)(=O)c1ccc(I)cc1`: 94 to 96 °C. To `CCC(C)c1ccc(C(=O)O)cc1` (centres undefined) belongs 88 to 90 °C.

On to `O=C(O)CNC(=O)c1c(Cl)cccc1[N+](=O)[O-]`, for which the melting point fell in the range of 186 to 188 °C. Next, `COc1cc(F)c(S(=O)(=O)Cl)cc1OC`: 82 to 84 °C.

`OCC1(NCCc2ccccc2)CCCC1`: the melting point lay in the range of 86 to 88 °C. Next, `Cc1ccc(NC(=O)CCl)c(C)c1`: 153 to 155 °C. Take `Oc1ccc(Cl)cc1-c1cc(-c2ccco2)[nH]n1`: the melting point is 166 to 168 °C.

With `O=C(O)Cc1sc(-c2ccccc2)nc1-c1cccs1`, the melting point lay within 117 to 119 °C. To `O=C(CC1CCCCC1)Nc1cccc2c1NCCC2` belongs 179 to 181 °C. As for `CCOC(=O)c1ccc(OCC#N)cc1`, the melting point was in the range of 73 to 75 °C. Next, `O=C1CCCc2ccccc2N1`: 129 to 131 °C; `CCN(Cc1ccccc1)c1ccc(C=O)cc1`: 38 to 42 °C; `CNC(=O)c1ccc(OC)c(N)c1`: 108 to 110 °C. For the compound `Cc1ccc(NC(=O)C2CC2)cc1N`, the melting point lay within 163 to 165 °C.

On to `O=C(Nc1ccc(O)cc1)c1ccccc1`, for which the melting point was in the range of 215 to 217 °C. To `O=C(O)c1csc2cncn12` belongs 229 to 231 °C.

`NC(=O)NCc1ccco1`: the melting point is 120 to 122 °C. Compound `Cc1cc(=O)[nH]c(-c2ccc(N)cc2)n1` returned a melting point of 222 to 224 °C. For the compound `CCC(CC)(C(=O)O)c1ccc(Cl)c(Cl)c1`, the melting point lay within 94 to 96 °C.

Compound `CC(C)n1cccc1C(=O)O` displayed a melting point of 106 to 108 °C. To `Cc1ccc(C(N)c2cccc(S(C)(=O)=O)c2)cc1` (centres undefined) belongs 73 to 75 °C; to `CC(Oc1ccc(F)cc1)C(=O)NN` (centres undefined), 164 to 167 °C. With `NS(=O)(=O)c1ccc2c(c1)COC2`, the melting point fell in the range of 146 to 148 °C. Take `O=C(O)CC=Cc1ccccc1F`: the melting point lay in the range of 54 to 56 °C.

Regarding `O=C1Nc2cc(F)c(Br)cc2C1=O`, the melting point lay within 266 to 268 °C. With `COC(=O)c1cnc(N)nc1`, the melting point fell in the range of 209 to 211 °C.

`CC(C)(CN)C(N)=O` yielded a melting point of 72 to 74 °C. For the compound `COc1cccc(-c2noc(SCC(=O)O)n2)c1`, the melting point was in the range of 103 to 105 °C.

In turn, `Cc1cc(C=O)c(C)n1Cc1ccco1` had a melting point of 87 to 89 °C.

Compound `N#Cc1cc(-c2ccccc2)c(-c2ccccc2)nc1Cl` yielded a melting point of 129 to 131 °C.

Compound `Nc1ccc(CC(=O)N2CCCc3ccccc32)cc1` returned a melting point of 141 to 143 °C. With `COc1ccc(N)cc1NC(=O)C1CCCCC1`, the melting point lay in the range of 147 to 149 °C. To `COc1ccccc1N(CCC#N)C(=O)C(C)Cl` (centres undefined) belongs 71 to 73 °C; to `Cc1ccc(-c2nnc3n2CCCCC3)cc1N`, 171 to 173 °C; to `NC(=O)Nc1ccc([N+](=O)[O-])cc1`, 224 to 226 °C. To `N#Cc1ccccc1Oc1ccc(CCl)cc1` belongs 54 to 56 °C. Take `Nc1cc(-c2ccc(OC(F)F)cc2)no1`: the melting point was in the range of 88 to 90 °C. To `CCOC(=O)c1snc(C(N)=O)c1N` belongs 205 to 207 °C.

For the compound `NC(=O)C(Cl)c1ccc(Br)cc1F` (centres undefined), the melting point was 101 to 103 °C. To `CC1(n2cc(C=O)cn2)CCS(=O)(=O)C1` (centres undefined) belongs 84 to 86 °C.

In turn, `N#CCCCOc1cccnc1N` came in with a melting point of 88 to 90 °C. As to `CC(CC(=O)O)(CC(=O)O)c1ccccc1`, the melting point fell in the range of 136 to 138 °C. Next, `CCCc1onc(C)c1C(=O)O`: 107 to 109 °C; `CCOC(=O)c1cc(F)c(F)cc1N`: 82 to 84 °C; `O=Cc1cccc2c1OCO2`: 34 to 36 °C. With `O=C(O)CN1Cc2ccccc2C1=O`, the melting point lay within 217 to 219 °C. Next, `O=C1CCCc2c(Br)cccc21`: 50 to 52 °C; `CS(=O)(=O)c1cccc(Oc2ccc(N)cc2)c1`: 103 to 105 °C; `CCOC(=O)c1cnc2nccn2c1`: 168 to 170 °C. For the compound `Cc1cc(N)ccc1C(=O)O`, the melting point was in the range of 154 to 156 °C.

In the case of `CC1(c2ccccc2Br)NC(=O)NC1=O` (centres undefined), the melting point was in the range of 219 to 221 °C.

Regarding `CNS(=O)(=O)c1cc(Br)cnc1N`, the melting point was in the range of 179 to 181 °C. As to `CCCc1noc2nc(C)cc(C(=O)O)c12`, the melting point is 169 to 171 °C. Next, `COCCn1cc(S(=O)(=O)Cl)cn1`: 35 to 37 °C; `O=C(Nc1nc2ccccc2s1)OCC(F)(F)F`: 224 to 226 °C. For `COC(=O)c1csc(Br)c1`, the melting point was in the range of 37 to 39 °C. For the compound `NCc1cc(OCC(F)F)ccn1`, the melting point was 71 to 73 °C. For the compound `O=C1c2ccccc2N2C(=O)CCC2(C(=O)O)N1Cc1ccccc1` (centres undefined), the melting point lay in the range of 134 to 136 °C. Next, `ClCc1nc(-c2ccccn2)no1`: 102 to 104 °C; `CN(CCCC(=O)O)C1=NS(=O)(=O)c2ccccc21`: 159 to 161 °C; `Cc1nc2c(c(C)nn2C)c(C)c1CCC(=O)O`: 211 to 213 °C. Turning to `CS(=O)(=O)Cc1ccc(S(=O)(=O)Cl)cc1`, the melting point lay in the range of 127 to 129 °C. In turn, `Cc1ccc(S(=O)(=O)N(C)Cc2ccc(C(=O)NN)cc2)cc1` gave a melting point of 66 to 68 °C. Take `NS(=O)(=O)c1c[nH]c(C(=O)O)c1`: the melting point fell in the range of 229 to 231 °C. To `N#CCNC(=O)CCl` belongs 88 to 90 °C; to `Cn1cc(C(=O)O)c(-c2ccc3c(c2)OCCCO3)n1`, 199 to 201 °C. Next, `CCc1ccccc1N(C(C)=O)c1nc(CN=C=S)cs1`: 96 to 98 °C.
